The subject of data set [1] is hyperlipidemia Chinese hamster. Kind of data set: Lipid lowering effects of berberine in hyperlipidemia Chinese hamster. Format: in vivo. Conditions: for LDL reduced by: after the 10 day treatment; for LDL Protein / Triglycerides / Cholesterol: serum, ten days; for LDL Protein: saline control 2.8 ± 0.9; for Triglycerides: saline control 3.6 ± 0.4; for Cholesterol: saline control 6.4 ± 1.0. How it is done: Two weeks prior to treatment, female Chinese hamsters purchased from the National Institute of Vaccine and Serum research (Beijing, China) were switched to a high fat and cholesterol diet (10% lard, 10% egg yolk powder and 1% cholesterol). After two weeks, groups of 14 hamsters were given either 10 mg/kg/day of berberine through peritoneal injection, 20 mg/kg/day of berberine through peritoneal injection, 50 mg/kg/day, 100 mg/kg/day of berberine orally or saline for ten days. Serum cholesterol, triglyceride and LDL levels were measured after 4 h fasting before, during and after the course of the treatment. Four hours after the course of the treatment, the animals were sacrificed and their livers removed for analysis.

Data set [2] can be described thus: Excretion of berberine in rats (urine, fecal matter, gall bladder secretions). Conditions: rat, in vivo, iv. Format: in vivo, rat. How it is done:
In a final series of animal model studies, rats were orally administered 3H-berberine. Forty-eight hours after administration, excretions were tested for the presence of berberine. 2.7% of the oral dose was measured in the urine and 86% of the oral dose was measured in the fecal matter.
Rats received intravenous berberine (9.25 MBq/kg). Six days accumulation of rat urine and fecal secretions were measured for the presence of berberine. 73% of the intravenous dose of the berberine was found in the accumulated urine in both metabolized and unmetabolized forms. 10.9% of the intravenous dose was found in the fecal matter.
Three rats were given berberine (9.25 MBq/kg) intravenously. After 24 hours, gall bladder secretions were collected and evaluated for the presence of berberine. There was 10.1±0.9% (x±SD, n=3) of berberine in the gall bladder secretions.

Data set [3] in a line: Toxicity analysis (LD50) in rats. Conditions: rat, in vivo. The protocol:
Rats and mice were administered berberine through a variety of techniques, including orally, through subcutaneous injection, peritoneal injection and intravenous injection.

In data set [4] the test system is InsR mRNA. Briefly: InsR mRNA expression in HepG2 cells (real time RT-PCR, slot blot). Format: cell-based, human. Conditions: HepG2, 2.5 μg/ml for 8 hours. The protocol: Cells from the human hepatoma cell line HepG2 were incubated with 0, 1, 2.5, 5, 10 or 15 μg/ml of berberine respectively for eight hours. Total cellular RNA was isolated using the Ultraspec RNA lysis solution (Biotecxs Laboratory, Houston, Tex.) following the vender's protocols. […] of the RNA sample was transferred to nitrocellulose membrane via a slot-blot apparatus (Schleicher & Schuell, Keene, N.H.). The blots were fixed by baking at 80° C. for 2 h, followed by hybridization to a 0.89-kb long, 32P-labelled human InsR cDNA probe. The same membranes were then stripped and re-hybridized to a human ACTB probe as internal control. Quantitative real time RT-PCR assays were also done. For the RT-PCR assay, total cellular RNA was reverse-transcribed into cDNA using the Reverse Transcription System (Promega, Madison, Wis.). Quantitative real-time PCR were performed with these cDNA using the Applied Biosystems 7500 Real-Time PCR System and TaqMan® Universal PCR Master Mix (Applied Biosystems, Foster City, Calif.). […] 2.5 μl of cDNA sample, 12.5 μl of Universal PCR Master Mix, and 1.25 μl of TaqMan® Gene Expression Assay reagent were mixed in a 25 μl reaction system, and the comparative CT method was used in relative gene quantification using the TaqMan® SDS analysis software. […]

Data set [5] has as its system PPAR-r mRNA. Kind of data set: PPAR-r mRNA expression in liver cells. Format: cell-based. Particulars: liver cells (data not shown). From the text:
The effect of berberine on InsR was further confirmed in another hepatoma cell line, Bel-7402 […] (FIG. 18). […] The expression of PPAR-r mRNA in liver cells was not changed by berberine (data not shown).

The mark [6] stands for this setting: 10 mg/kg/day peritoneal injection.
Where [7] appears, read: 20 mg/kg/day peritoneal injection.

Consider `COc1ccc2cc3[n+](cc2c1OC)CCc1cc2c(cc1-3)OCO2` [berberine], for which the “LDL reduced by” value worked out at 26% in data set [1] (50 mg/kg/day) and 42% in data set [1] (100 mg/kg/day). Further, the “LDL Protein” value came out at 1.6 ± 0.3 in data set [1] (setting [6]), 0.9 ± 0.1 in data set [1] (setting [7]), 2.07 ± 0.9 in data set [1] (50 mg/kg/day (orally)) and 1.2 ± 0.2 in data set [1] (100 mg/kg/day oral). Further, the Triglycerides was 2.6 ± 0.3 in data set [1] (setting [6]), 1.7 ± 0.5 in data set [1] (setting [7]) and 1.9 ± 0.4 in data set [1] (100 mg/kg/day oral). Also, the Cholesterol in data set [1] (setting [6]) is listed as 4.1 ± 0.7; in data set [1] (setting [7]), 3.2 ± 0.5; in data set [1] (50 mg/kg/day (orally)) it was 3.5 ± 0.5; in data set [1] (100 mg/kg/day oral), 3.8 ± 0.7. Also, the “intravenous dose found in accumulated urine (metabolized and unmetabolized forms)” value in data set [2] turned out to be 73%. Besides, the “intravenous dose found in the fecal matter” value in data set [2] is 10.9%. Also, the LD50 is 138 to 146 mg/kg in data set [3] (intraperitoneal, peritoneal injection); 46.2 to 63.3 mg/kg in data set [3] (intravenous injection); > 15000 mg/kg in data set [3] (oral dose); 7970 to 10700 mg/kg in data set [3] (sc, subcutaneous injection). Also, the “increase of InsR mRNA” value in data set [4] turned out to be 40%. In data set [5], the “expression of PPAR-r mRNA” value is reported as “not changed”.

For the origin of these results see patent publication US20080081781A1, “Methods and compositions for the treatment of metabolic syndrome” (priority 2004, published 2008).
